One test concerns SF268 (CNS) cells. Briefly: Sulforhodamine B (SRB) assay, SF268. In kind it is cell-based. The settings on record: Homo sapiens; for CC50: SF-268, 48 h, read-out: LC50; for GI50 / IC (TGI): SF-268, SF268 CNS, SRB, 48 h. Here is the method: (§1) Sulforhodamine B (SRB) assays were performed according to standard National Cancer Institute Guidelines. Briefly, human tumor cells from different cancer panels were seeded into 96 well plates in […] (plating densities ranging from 5-40,000 cells/well depending on the doubling time of individual cell lines) in serum-containing media for twenty-four hours prior to the addition of the compounds to be assayed. After 24 hours, one plate of each cell line was fixed in situ with trichloroacetic acid (TCA). The fixed slides were used to determine the cell population for each cell line at the time of drug addition (Tz). Each compound to be tested was solubilized in dimethyl sulfoxide (DMSO) and the desired concentration was then added to the medium and diluted serially 1:10 to provide a total of five or ten drug concentrations plus control (in a final volume of 200 μL). The starting dose before any dilution was 100 uM for all compounds.
(§2) Following drug addition, each culture was incubated for forty-eight hours. The assay was terminated with the addition of cold TCA. The supernatant was discarded, and the plates were washed with tap water and air dried. SRB solution was then added to each well. After staining, the bound stain was solubilized and the absorbance was read on an automated plate reader at a wavelength of 515 nm.
(§3) Using the absorbance measurements [time zero, (Tz), control growth, (C), and test growth in the presence of drug at the ten concentration levels (Ti)], the percentage growth was calculated at each of the drug concentrations levels. Percentage growth inhibition was calculated as:
(§4) [(Ti−Tz)/(C−Tz)]×100 for concentrations for which Ti>/=Tz
(§5) [(Ti−Tz)/Tz]×100 for concentrations for which Ti<Tz.
(§6) Three dose response parameters were calculated for each experimental agent. Growth inhibition of 50% (GI50) was calculated from [(Ti−Tz)/(C−Tz)]×100=50, which was the drug concentration resulting in a 50% reduction in the net protein increase (as measured by SRB staining) in control cells during the drug. The drug concentration resulting in total growth inhibition (TGI) was calculated from Ti=Tz. The LC50 (concentration of drug resulting in a 50% reduction in the measured protein at the end of the drug treatment as compared to that at the beginning) indicating a net loss of cells following treatment was calculated from [(Ti−Tz)/Tz]×100=−50.
(§7) Values were calculated for each of these three parameters when the level of activity was reached; however, if the effect was not reached or was exceeded, the value for that parameter was expressed as greater or less than the maximum or minimum concentration tested.

A further test concerns MCF7 (Breast) cells. Put plainly: Sulforhodamine B (SRB) assay, MCF7. As to conditions: for CC50 / GI50: Homo sapiens; for CC50: MCF7, 48 h, read-out: LC50; for GI50 / TGI: MCF7 Breast, SRB, 48 h. In kind it is cell-based, human. Here is the method: as §1, §2, §3, §4, §5, §6, §7
(In general: In SRB staining, fixed cells bind dye roughly in proportion to their protein.)

In a further test the test system is A549 (Lung) cells. Put plainly: Sulforhodamine B (SRB) assay, A549. The settings on record: Homo sapiens; for CC50: A549, 48 h, read-out: LC50; for GI50 / IC (TGI): A549 Lung, SRB, 48 h. In kind it is cell-based. Here is the method:
as §1, §2, §3, §4, §5, §6, §7

Test [1] relates to NCI-ADR-RES (Ovarian) cells. Put plainly: Sulforhodamine B (SRB) assay, NCI-ADR-RES (multidrug resistant). As to conditions: 48 h. It counts as cell-based, human. Here is the method: as §1, §2, §3, §4, §5, §6, §7
The subject of test [2] is 7 different cell lines (lung, ovarian, prostate, CNS, breast, colon). Put plainly: SRB assays across 7 cell lines. As to conditions: for GI50: average over cell lines; for viability and/or cell proliferation of cell lines: cell lines representative of lung, breast, CNS, prostate, ovarian, colon and renal neoplasias. It counts as cell-based, human. Here is the method: as §1, §2, §3, §4, §5, §6, §7
SRB provides a colorimetric measure of a compound's anti-cancer activity. SRB assays were performed with compounds of the invention in 7 different cell lines, which represent six different tumor panels (lung, ovarian, prostate, CNS, breast, colon).

The next test deals with DU145 (Prostate) cells. Put plainly: MTT cell proliferation/viability assay, DU145. It counts as cell-based. The settings on record: Homo sapiens, DU-145, 72 h. Here is the method: (§8) Cell proliferation/viability was assessed by the MTT [3-(4,5-dimethylthiazol-2-yl)-2,5-diphenyltetrazolium bromide] assay, which is commercially available (Sigma, St. Louis, Mo.). Cells were cultured in 96-well plates for twenty-four hours (7-10.000 cells/well) and incubated with various concentrations of the different compounds—as indicated in the Figures—in serum-containing medium (or left untreated) for seventy-two hours. At the end of incubation, the medium was aspirated and MTT dissolved in RPMI 1640 w/o phenol red was added to each well to a final concentration of 0.25 mg/ml. After four hours incubation in the dark (37° C., 5% CO2) the supernatant was discarded. The converted dye (blue formazan crystals) was solubilized by adding 200 μl dimethylsulfoxide to each well. Absorbance was measured at 550 nm with reference at 655 nm using a spectrophotometer with the respective filters. All assays were performed in triplicate.
(§9) The effect of the different compounds on the proliferation and viability of two cancer cell lines (DU145/prostate and CAKI/renal) was tested through quantitative (4,5-dimethylthiazol-2-yl)-2,5-diphenyltetrazolium bromide (MTT) assays.

The next test relates to PC3 (Prostate) cells. Briefly: Sulforhodamine B (SRB) assay, PC3. In kind it is cell-based. As to conditions: Homo sapiens, Prostate cell, 48 h; for CC50: read-out: LC50; for GI50 / IC (TGI): PC3 Prostate, SRB. Here is the method:
as §1, §2, §3, §4, §5, §6, §7

Test [3] addresses Na+/K+-ATPase (Adenosine 5′-Triphosphatase isolated from porcine cerebral cortex). Put plainly: Na+/K+-ATPase inhibitory activity, colorimetric Adenosine 5′-Triphosphatase Enzymatic Assay (Sigma). In kind it is biochemical. The settings on record: enzyme from porcine cerebral cortex, 0.5 units/ml. Here is the method:
The compound inhibitory effect on ATPase activity was assessed in vitro using the colorimetric Adenosine 5′-Triphosphatase Enzymatic Assay of Sigma (St. Louis, Mo.) according to the manufacturer's instructions. This assay utilizes Adenosine 5′-Triphosphatase isolated from porcine cerebral cortex. Each reaction was performed in a final volume of […] using 0.5 units/ml enzyme in the presence of the different inhibitors. […] IC50 values were determined using the Origin® program software (OriginLab, Northampton, Mass.).

Another test has as its system HCT116 (Colon) cells. Briefly: Sulforhodamine B (SRB) assay, HCT116. In kind it is cell-based, human. Here is the method: as §1, §2, §3, §4, §5, §6, §7
For a further test, the system named is H460 (Lung) cells. Briefly: Sulforhodamine B (SRB) assay, H460. It counts as cell-based, human. The settings on record: for TGI / GI50: H460 Lung, SRB, 48 h; for CC50 / GI50: Homo sapiens; for CC50: NCI-H460, 48 h, read-out: LC50; for GI50: NCI-H460. Here is the method:
as §1, §2, §3, §4, §5, §6, §7

For a further test, the system named is CAKI (Renal) cells. Briefly: MTT cell proliferation/viability assay, CAKI. In kind it is cell-based. The settings on record: 72 h. Here is the method:
as §8, §9

A value given as a limit tells only on which side of the number the result lay.

What is called GI50 is the concentration that inhibits growth by half. A higher GI50 goes with lower sensitivity of the cells. By TGI is commonly meant the concentration at which net growth stops. Higher therefore signals lower sensitivity of the cells. As a reminder, the IC50 is the concentration at which inhibition is half-maximal. Read a high IC50 as weaker potency in that assay.

Take `CON=C1CC2C(CC[C@]3(C)C(=O)C(F)CC23)[C@@]2(C)CCC(=NOC3CCNC3)CC12` (stereo in doubt) [Compound 8, (5S,10R,13S,16R)-16a-fluoro-6-(methoxyimino)-10,13-dimethyl-3-((R)-pyrrolidin-3-yloxyimino)-tetradecahydro-2H-cyclopenta[a]phenanthren-17(14H)-one]: the CC50 is 0.085 µM in the test on SF268 (CNS) cells; 6.96 µM in the test with MCF7 (Breast) cells; 0.075 µM in the test on A549 (Lung) cells; 0.508 µM in test [1] (Homo sapiens, NCI/ADR-RES, read-out: LC50); below 1 µM in [2] (Homo sapiens, read-out: LC50 values); 0.919 µM in the test on PC3 (Prostate) cells. Further, the CC50 with HCT116 (Colon) cells (Homo sapiens, HCT-116, 48 h, read-out: LC50) was found to be 1.04 µM; in the test with H460 (Lung) cells, 0.074 µM. Further, the GI50 with SF268 (CNS) cells is 0.004 µM; with MCF7 (Breast) cells it was 0.024 µM; in the test with A549 (Lung) cells it was 0.006 µM; in test [1] (Homo sapiens, NCI-ADR-RES Ovarian, SRB), 0.014 µM; in test [2] (Homo sapiens, SRB), below 1 µM; in the test with PC3 (Prostate) cells, 0.009 µM. The 50% growth inhibitory concentration (GI50) came to 0.035 µM with HCT116 (Colon) cells (Homo sapiens, HCT-116, HCT116 Colon, SRB, 48 h) and 0.004 µM in the test on H460 (Lung) cells. Moreover, the IC (TGI) in the test with SF268 (CNS) cells worked out at 0.038 µM; in the test on A549 (Lung) cells, 0.029 µM; in the test with PC3 (Prostate) cells, 0.199 µM. Further, the concentration for total growth inhibition (TGI) worked out at 0.327 µM in the test on MCF7 (Breast) cells; 0.071 µM in test [1] (NCI-ADR-RES Ovarian, SRB); 0.236 µM in the test with HCT116 (Colon) cells (HCT116 Colon, SRB, 48 h); 0.027 µM in the test on H460 (Lung) cells. Besides, the “viability and/or cell proliferation of cell lines” value in test [2] is “reduced the viability and/or cell proliferation”. For the same compound, the “anti-cancer activity in SRB assays” value in [2] (multiple cell lines) was “best activity”. The IC50 in the test on DU145 (Prostate) cells was determined as 0.223 µM; in test [3], 0.311 µM.

With `C[C@]12CCC(=NOC3CCNC3)CC1C(=O)CC1C2CC[C@]2(C)C(=O)C(F)CC12` (stereo partly drawn) [Compound 4, (10R,13S,16R)-16a-fluoro-10,13-dimethyl-3-((S)-pyrrolidin-3-yloxyimino)-tetradecahydro-14H-cyclopenta[a]phenanthrene-6,17-dione], the results for the IC50 (in the test with CAKI (Renal) cells; in the test on DU145 (Prostate) cells; in [3]) were 5 µM, 2.7 µM and 0.194 µM, respectively. The CC50 in the test on SF268 (CNS) cells stood at 6.98 µM; with A549 (Lung) cells, 1.01 µM; in the test with PC3 (Prostate) cells, 8.04 µM. Further, the GI50 in the test with SF268 (CNS) cells was 0.277 µM; in the test with A549 (Lung) cells, 0.43 µM; in [2] (Homo sapiens, SRB), below 1 µM; in the test with PC3 (Prostate) cells it was 0.731 µM. For the same compound, the results for the IC (TGI) in the test with SF268 (CNS) cells, in the test with A549 (Lung) cells and in the test with PC3 (Prostate) cells were 0.782 µM, 0.723 µM and 3.24 µM, respectively. Also, the “viability and/or cell proliferation of cell lines” value in [2] was “reduced the viability and/or cell proliferation”.

As for `CC(=O)OC[C@]12CCC(=NO[C@@H]3CCNC3)C[C@@H]1CCC1C2CC[C@]2(C)C(=O)CCC12` (stereo partly drawn) [Compound 48, ((5S,10R,13S)-13-methyl-17-oxo-3-((R)-pyrrolidin-3-yloxyimino)-hexadecahydro-1H-cyclopenta[a]phenanthren-10-yl)methyl acetate], the concentration for half-maximal inhibition (IC50) in the test with CAKI (Renal) cells was 41.3 µM; in the test on DU145 (Prostate) cells it was 11.6 µM; in test [3], 2.88 µM. Moreover, the CC50 in the test with SF268 (CNS) cells was 101 µM; in the test on A549 (Lung) cells, 102 µM; with PC3 (Prostate) cells it was above 100 µM. Besides, the figures for the GI50 with SF268 (CNS) cells, in the test with A549 (Lung) cells and in the test on PC3 (Prostate) cells were 11.5 µM, 6.31 µM and 8.77 µM, respectively. In addition, the IC (TGI) with SF268 (CNS) cells was 56400 µM; in the test on A549 (Lung) cells, 38300 µM; with PC3 (Prostate) cells it was above 100 µM. In addition, in test [2] (SRB, most cell lines), the “GI50 action in most cell lines” value is given as “single-digit micromolar”. In test [2], the “viability and/or cell proliferation of cell lines” value is recorded as “reduced the viability and/or cell proliferation”.

With `C[C@]12CCC3C(CC(=O)[C@H]4CC(=NO[C@H]5CCNC5)CC[C@]34CO)C1CCC2=O` (stereo partly drawn) [Compound 28, (5S,10S,13S)-10-(hydroxymethyl)-13-methyl-3-((S)-pyrrolidin-3-yloxyimino)-tetradecahydro-14H-cyclopenta[a]phenanthrene-6,17-dione], the CC50 in the test on SF268 (CNS) cells is above 100 µM; in the test with MCF7 (Breast) cells, above 100 µM; with A549 (Lung) cells, above 100 µM; with PC3 (Prostate) cells, 157 µM; in the test with H460 (Lung) cells, above 100 µM. Also, the GI50 worked out at 63.8 µM with SF268 (CNS) cells; 76.5 µM with MCF7 (Breast) cells; 62.6 µM with A549 (Lung) cells; 53.5 µM in the test with PC3 (Prostate) cells; 57.6 µM in the test on H460 (Lung) cells. For the same compound, the IC (TGI) in the test on SF268 (CNS) cells and in the test on A549 (Lung) cells was above 100 µM each time. The TGI with MCF7 (Breast) cells and in the test on H460 (Lung) cells was above 100 µM in each case. The “viability and/or cell proliferation of cell lines” value in [2] is given as “reduced the viability and/or cell proliferation”. The IC50 in the test with DU145 (Prostate) cells was 87 µM; in [3], 12.9 µM.
